Source: patent publication US20150105252A1, “SUBSTITUTED PYRAZOLES AS HERBICIDES” (E I DU PONT DE NEMOURS AND COMPANY, priority 2013, published 2015)

Legend:
[1] = system: ducksalad; assay: Test C flooded paddy test; format: in vivo, Heteranthera limosa; conditions: Flood
Description: (§1) At time of treatment, test pots were flooded to 3 cm above the soil surface, treated by application of test compounds directly to the paddy water, and then maintained at that water depth for the duration of the test. Treated plants and controls were maintained in a greenhouse for 13 to 15 days, after which time all species were compared to controls and visually evaluated. […] A dash (-) response means no test result.

[2] = system: crabgrass, large; assay: Test A postemergence; format: in vivo, Digitaria sanguinalis
Method in brief: (§2)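 Growth medium: loam soil blended with sand. Preemergence treatment used a directed soil spray right after planting; postemergence treatment targeted seedlings at one to two leaves (2–10 cm height). Response was judged by eye relative to untreated plants about 10 days later on a 0–100 control scale.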

[3] = system: pigweed; assay: Test A postemergence; format: in vivo, Amaranthus retroflexus
Method in brief: as §2

[4] = system: corn; assay: Test A preemergence; format: in vivo, Zea mays; conditions: 0 to 100 scale
Method in brief: as §2

[5] = system: corn; assay: Test A postemergence; format: in vivo, Zea mays
Method in brief: as §2

[6] = system: crabgrass, large; assay: Test A preemergence; format: in vivo, Digitaria sanguinalis; conditions: 0 to 100 scale
Method in brief: as §2

[7] = system: wheat; assay: Test A postemergence; format: in vivo, Triticum aestivum
Method in brief: as §2

[8] = system: barnyardgrass; assay: Test A preemergence; format: in vivo, Echinochloa crus-galli; conditions: 0 to 100 scale
Method in brief: as §2

[9] = system: velvetleaf; assay: Test A preemergence; format: in vivo, Abutilon theophrasti; conditions: 0 to 100 scale
Method in brief: as §2

[10] = system: sedge, umbrella; assay: Test C flooded paddy test; format: in vivo, Cyperus difformis; conditions: Flood
Method in brief: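 Ratings were visual and made relative to untreated controls after 13 to 15 greenhouse days.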

[11] = system: morningglory; assay: Test A postemergence; format: in vivo, Ipomoea spp.
Method in brief: as §2

[12] = system: morningglory; assay: Test A preemergence; format: in vivo, Ipomoea spp.; conditions: 0 to 100 scale
Method in brief: as §2

[13] = system: foxtail, giant; assay: Test A preemergence; format: in vivo, Setaria faberii; conditions: 0 to 100 scale
Method in brief: as §2

[14] = system: wheat; assay: Test A preemergence; format: in vivo, Triticum aestivum; conditions: preemergence, 125 g ai/ha; visual injury, 0 to 100 scale, approx. 10 days
Method in brief: as §2

[15] = system: pigweed; assay: Test A preemergence; format: in vivo, Amaranthus retroflexus; conditions: 0 to 100 scale
Method in brief: as §2

[16] = system: rice; assay: Test C flooded paddy test; format: in vivo, Oryza sativa; conditions: Flood
Description: as §1

[17] = system: barnyardgrass; assay: Test A postemergence; format: in vivo, Echinochloa crus-galli; conditions: Postemergence
Method in brief: as §2

[18] = system: velvetleaf; assay: Test A postemergence; format: in vivo, Abutilon theophrasti
Method in brief: as §2

[19] = system: foxtail, giant; assay: Test A postemergence; format: in vivo, Setaria faberii
Method in brief: as §2

[20] = system: barnyardgrass; assay: Test C flooded paddy test; format: in vivo, Echinochloa crus-galli; conditions: Flood
Description: as §1

[21] = 31 g ai/ha, scale 0 to 100 (0 no effect, 100 complete control)
[22] = 62 g ai/ha, scale 0 to 100 (0 no effect, 100 complete control)
[23] = Postemergence, 500 g ai/ha, visual rating after approx. 10 days, 0 to 100 scale (0 no effect, 100 complete control)
[24] = postemergence, 125 g ai/ha, about 10 days, visual rating on 0 to 100 scale (0 no effect, 100 complete control)
[25] = Preemergence, 500 g ai/ha, 0 no effect, 100 complete control
[26] = preemergence, 125 g ai/ha, visual injury, approx. 10 days
[27] = 125 g ai/ha, 0 to 100 scale, 0 no effect, 100 complete control
[28] = 500 g ai/ha, visual rating after approx. 10 days, 0 to 100 scale (0 no effect, 100 complete control)

CNC(=O)c1cc(C)n(Cc2cccc(OC(F)(F)F)c2)n1 [Compound 3]
Plant response rating, Ducksalad [1, 21]: 40
Plant response rating, Ducksalad [1, 22]: 50
Plant response rating, Ducksalad ([1]; 125 g ai/ha, scale 0 to 100): 50
Plant response rating, Ducksalad ([1]; 250 g ai/ha, scale 0 to 100): 60
Crabgrass, Large plant response rating [2, 23]: 10
Crabgrass, Large plant response rating [2, 24]: 0
Pigweed plant response rating [3, 23]: 70
Pigweed plant response rating [3, 24]: 20
Corn plant response rating [4, 25]: 0
Corn plant response rating [4, 26]: 0
Corn plant response rating [5, 23]: 10
Corn plant response rating [5, 24]: 0
Crabgrass, Large plant response rating [6, 25]: 30
Crabgrass, Large plant response rating [6, 26]: 0
Wheat plant response rating [7, 23]: 0
Wheat plant response rating [7, 24]: 0
Barnyardgrass plant response rating [8, 25]: 0
Barnyardgrass plant response rating [8, 26]: 0
Velvetleaf plant response rating [9, 25]: 0
Velvetleaf plant response rating [9, 26]: 0
Plant response rating, Sedge, Umbrella [10, 21]: 0
Plant response rating, Sedge, Umbrella [10, 22]: 0
Plant response rating, Sedge, Umbrella ([10]; 125 g ai/ha, scale 0 to 100): 0
Plant response rating, Sedge, Umbrella ([10]; 250 g ai/ha, scale 0 to 100): 0
Morningglory plant response rating [11, 23]: 20
Morningglory plant response rating [11, 24]: 10
Morningglory plant response rating [12, 25]: 0
Morningglory plant response rating [12, 26]: 0
Foxtail, Giant plant response rating [13, 25]: 20
Foxtail, Giant plant response rating [13, 26]: 0
Wheat plant response rating [14]: 0
Pigweed plant response rating [15, 25]: 100
Pigweed plant response rating [15, 26]: 0
Plant response rating, Rice [16, 21]: 0
Plant response rating, Rice [16, 22]: 0
Plant response rating, Rice ([16]; 125 g ai/ha, scale 0 to 100): 0
Plant response rating, Rice ([16]; 250 g ai/ha, scale 0 to 100): 0
Barnyardgrass plant response rating [17, 27]: 0
Barnyardgrass plant response rating [17, 28]: 0
Velvetleaf plant response rating [18, 23]: 20
Velvetleaf plant response rating [18, 24]: 0
Foxtail, Giant plant response rating [19, 23]: 0
Foxtail, Giant plant response rating [19, 24]: 0
Plant response rating, Barnyardgrass [20, 21]: 0
Plant response rating, Barnyardgrass [20, 22]: 0
Plant response rating, Barnyardgrass ([20]; 125 g ai/ha, scale 0 to 100): 0
Plant response rating, Barnyardgrass ([20]; 250 g ai/ha, scale 0 to 100): 0

CCNC(=O)c1cc(C)n(Cc2cccc(OC(F)(F)F)c2)n1 [Compound 4]
Plant response rating, Ducksalad [1, 21]: 0
Plant response rating, Ducksalad [1, 22]: 40
Plant response rating, Ducksalad ([1]; 125 g ai/ha, scale 0 to 100): 50
Plant response rating, Ducksalad ([1]; 250 g ai/ha, scale 0 to 100): 60
Crabgrass, Large plant response rating [2, 23]: 50
Crabgrass, Large plant response rating [2, 24]: 20
Pigweed plant response rating [3, 23]: 80
Pigweed plant response rating [3, 24]: 70
Corn plant response rating [4, 25]: 0
Corn plant response rating [4, 26]: 0
Corn plant response rating [5, 23]: 40
Corn plant response rating [5, 24]: 10
Crabgrass, Large plant response rating [6, 25]: 90
Crabgrass, Large plant response rating [6, 26]: 40
Wheat plant response rating [7, 23]: 0
Wheat plant response rating [7, 24]: 0
Barnyardgrass plant response rating [8, 25]: 50
Barnyardgrass plant response rating [8, 26]: 0
Velvetleaf plant response rating [9, 25]: 10
Velvetleaf plant response rating [9, 26]: 0
Plant response rating, Sedge, Umbrella [10, 21]: 0
Plant response rating, Sedge, Umbrella [10, 22]: 0
Plant response rating, Sedge, Umbrella ([10]; 125 g ai/ha, scale 0 to 100): 0
Plant response rating, Sedge, Umbrella ([10]; 250 g ai/ha, scale 0 to 100): 60
Morningglory plant response rating [11, 23]: 90
Morningglory plant response rating [11, 24]: 30
Morningglory plant response rating [12, 25]: 20
Morningglory plant response rating [12, 26]: 0
Foxtail, Giant plant response rating [13, 25]: 60
Foxtail, Giant plant response rating [13, 26]: 0
Wheat plant response rating [14]: 0
Pigweed plant response rating [15, 25]: 100
Pigweed plant response rating [15, 26]: 50
Plant response rating, Rice [16, 21]: 0
Plant response rating, Rice [16, 22]: 0
Plant response rating, Rice ([16]; 125 g ai/ha, scale 0 to 100): 0
Plant response rating, Rice ([16]; 250 g ai/ha, scale 0 to 100): 0
Barnyardgrass plant response rating [17, 27]: 10
Barnyardgrass plant response rating [17, 28]: 40
Velvetleaf plant response rating [18, 23]: 30
Velvetleaf plant response rating [18, 24]: 10
Foxtail, Giant plant response rating [19, 23]: 30
Foxtail, Giant plant response rating [19, 24]: 10
Plant response rating, Barnyardgrass [20, 21]: 0
Plant response rating, Barnyardgrass [20, 22]: 0
Plant response rating, Barnyardgrass ([20]; 125 g ai/ha, scale 0 to 100): 0
Plant response rating, Barnyardgrass ([20]; 250 g ai/ha, scale 0 to 100): 0
